IC50 data for 17 molecules are collected here from US9579314B2 (priority 2015, dated 2017).

Where only a bound is given, the exact number is not on record here.

The target in one experiment is Human M3 receptor (Homo sapiens, UniProt P20309). The note with it: read-out: M3 binding affinity.
In a further experiment the target is Human β2 adrenoceptor (Homo sapiens, UniProt P07550). The note with it: read-out: B2 binding affinity.
Human β2 adrenoceptor, sequence (P07550 whole entry): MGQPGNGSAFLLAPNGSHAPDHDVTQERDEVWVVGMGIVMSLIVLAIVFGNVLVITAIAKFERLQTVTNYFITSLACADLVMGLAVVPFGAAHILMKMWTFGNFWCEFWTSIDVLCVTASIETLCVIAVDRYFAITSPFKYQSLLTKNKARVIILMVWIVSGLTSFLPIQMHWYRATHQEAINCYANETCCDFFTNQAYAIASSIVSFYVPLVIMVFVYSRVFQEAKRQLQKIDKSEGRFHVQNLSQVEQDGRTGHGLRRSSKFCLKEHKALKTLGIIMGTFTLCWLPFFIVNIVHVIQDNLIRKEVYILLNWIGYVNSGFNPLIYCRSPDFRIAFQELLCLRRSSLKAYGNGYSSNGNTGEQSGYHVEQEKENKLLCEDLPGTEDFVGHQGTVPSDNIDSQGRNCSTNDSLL

Human M3 receptor, sequence (P20309 whole entry): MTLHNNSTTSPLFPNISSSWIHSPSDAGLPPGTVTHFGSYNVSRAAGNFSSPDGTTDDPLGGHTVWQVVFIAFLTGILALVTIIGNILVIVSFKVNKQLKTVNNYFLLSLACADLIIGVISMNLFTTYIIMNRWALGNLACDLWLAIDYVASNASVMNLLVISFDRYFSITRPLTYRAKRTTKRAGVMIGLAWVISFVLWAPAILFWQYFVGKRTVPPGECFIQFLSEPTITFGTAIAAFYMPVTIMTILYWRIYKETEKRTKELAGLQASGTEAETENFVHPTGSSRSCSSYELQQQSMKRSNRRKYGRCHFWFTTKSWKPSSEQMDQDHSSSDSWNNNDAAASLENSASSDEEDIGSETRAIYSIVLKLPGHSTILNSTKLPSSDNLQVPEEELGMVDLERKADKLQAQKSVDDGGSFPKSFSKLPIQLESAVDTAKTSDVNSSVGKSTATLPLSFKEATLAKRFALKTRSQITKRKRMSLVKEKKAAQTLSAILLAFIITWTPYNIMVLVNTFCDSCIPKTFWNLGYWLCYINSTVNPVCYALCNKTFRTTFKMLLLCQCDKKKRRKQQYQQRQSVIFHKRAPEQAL

For `O=C(COc1cccc([C@](O)(C(=O)OCC2CCN(Cc3ccccc3)CC2)c2ccccc2)c1)N1CCC2(CC1)CCN(C(=O)c1ccc(CCNC[C@H](O)c3ccc(O)c4[nH]c(=O)ccc34)cc1)CC2` [Compound 95, (1-benzylpiperidin-4-yl)methyl (S)-2-hydroxy-2-(3-(2-(9-(4-(2-(((R)-2-hydroxy-2-(8-hydroxy-2-oxo-1,2-dihydroquinolin-5-yl)ethyl)amino)ethyl)benzoyl)-3,9-diazaspiro[5.5]undecan-3-yl)-2-oxoethoxy)phenyl)-2-phenylacetate], the IC50 on Human M3 receptor and at Human β2 adrenoceptor was under 0.3 nM throughout.

On to `O=C(COc1cccc([C@](O)(C(=O)OCC2CCN(Cc3ccccc3)CC2)c2ccccc2)c1)N[C@H]1CCN(C(=O)c2ccc(CCNC[C@H](O)c3ccc(O)c4[nH]c(=O)ccc34)cc2)C1` [Compound 107, (1-benzylpiperidin-4-yl)methyl (S)-2-hydroxy-2-(3-(2-(((S)-1-(4-(2-(((R)-2-hydroxy-2-(8-hydroxy-2-oxo-1,2-dihydroquinolin-5-yl)ethyl)amino)ethyl)benzoyl)pyrrolidin-3-yl)amino)-2-oxoethoxy)phenyl)-2-phenylacetate], for which the IC50 at Human M3 receptor was 0.3 to 3 nM; on Human β2 adrenoceptor it was under 0.3 nM.

Take `CN(CCNC(=O)c1ccc(CNC[C@H](O)c2ccc(O)c3[nH]c(=O)ccc23)cc1)C(=O)COc1cccc([C@](O)(C(=O)OCC2CCN(Cc3ccccc3)CC2)c2ccccc2)c1` [Compound 60, (1-benzylpiperidin-4-yl)methyl (S)-2-hydroxy-2-(3-(2-((2-(4-((((R)-2-hydroxy-2-(8-hydroxy-2-oxo-1,2-dihydroquinolin-5-yl)ethyl)amino)methyl)benzamido)ethyl)(methyl)amino)-2-oxoethoxy)phenyl)-2-phenylacetate]: the IC50 at Human M3 receptor and on Human β2 adrenoceptor was 0.3 to 3 nM each time.

Consider `O=C(NCC1CCN(C(=O)COc2cccc([C@](O)(C(=O)OCC3CCN(Cc4ccccc4)CC3)c3ccccc3)c2)CC1)c1ccc(CCNC[C@H](O)c2ccc(O)c3[nH]c(=O)ccc23)cc1` [Compound 89, (1-benzylpiperidin-4-yl)methyl (S)-2-hydroxy-2-(3-(2-(4-((4-(2-(((R)-2-hydroxy-2-(8-hydroxy-2-oxo-1,2-dihydroquinolin-5-yl)ethyl)amino)ethyl)benzamido)methyl)piperidin-1-yl)-2-oxoethoxy)phenyl)-2-phenylacetate], for which the IC50 on Human M3 receptor is 0.3 to 3 nM; at Human β2 adrenoceptor it was under 0.3 nM.

Turning to `COc1cc(C(=O)NCCCOc2cccc([C@](O)(C(=O)OCC3CCN(Cc4ccccc4)CC3)c3ccccc3)c2)c(F)cc1CNC[C@H](O)c1ccc(O)c2[nH]c(=O)ccc12` [Compound 32I, (S)-(1-benzylpiperidin-4-yl)methyl 2-(3-(3-(2-fluoro-4-((((R)-2-hydroxy-2-(8-hydroxy-2-oxo-1,2-dihydroquinolin-5-yl)ethyl)amino)methyl)-5-methoxybenzamido)propoxy)phenyl)-2-hydroxy-2-phenylacetate], the IC50 on Human M3 receptor and on Human β2 adrenoceptor was under 0.3 nM throughout.

For `O=C(NCCCCNC[C@H](O)c1ccc(O)c2[nH]c(=O)ccc12)c1cccc(C(O)(C(=O)OCC2CCN(Cc3ccccc3)CC2)c2ccccc2)c1` (stereo partly drawn) [Compound 47, (1-benzylpiperidin-4-yl)methyl 2-hydroxy-2-(3-((4-(((R)-2-hydroxy-2-(8-hydroxy-2-oxo-1,2-dihydroquinolin-5-yl)ethyl)amino)butyl)carbamoyl)phenyl)-2-phenylacetate diformate], the IC50 on Human M3 receptor is 0.3 to 3 nM; at Human β2 adrenoceptor it was under 0.3 nM.

Turning to `O=C(N[C@H]1CCN(C(=O)COc2cccc([C@](O)(C(=O)OCC3CCN(Cc4ccccc4)CC3)c3ccccc3)c2)C1)c1ccc(CNC[C@H](O)c2ccc(O)c3[nH]c(=O)ccc23)cc1` [Compound 73, (1-benzylpiperidin-4-yl)methyl (S)-2-hydroxy-2-(3-(2-((S)-3-(4-((((R)-2-hydroxy-2-(8-hydroxy-2-oxo-1,2-dihydroquinolin-5-yl)ethyl)amino)methyl)benzamido)pyrrolidin-1-yl)-2-oxoethoxy)phenyl)-2-phenylacetate], the IC50 at Human M3 receptor is 0.3 to 3 nM; at Human β2 adrenoceptor, under 0.3 nM.

`O=C(N[C@H]1CCCN(C(=O)COc2cccc([C@](O)(C(=O)OCC3CCN(Cc4ccccc4)CC3)c3ccccc3)c2)C1)c1ccc(CNC[C@H](O)c2ccc(O)c3[nH]c(=O)ccc23)cc1` [Compound 72, (1-benzylpiperidin-4-yl)methyl (S)-2-hydroxy-2-(3-(2-((S)-3-(4-((((R)-2-hydroxy-2-(8-hydroxy-2-oxo-1,2-dihydroquinolin-5-yl)ethyl)amino)methyl)benzamido)piperidin-1-yl)-2-oxoethoxy)phenyl)-2-phenylacetate]: the IC50 at Human M3 receptor was 0.3 to 3 nM; at Human β2 adrenoceptor, over 3 nM.

As to `O=C(NC1CN(C(=O)COc2cccc([C@](O)(C(=O)OCC3CCN(Cc4ccccc4)CC3)c3ccccc3)c2)C1)c1ccc(CNC[C@H](O)c2ccc(O)c3[nH]c(=O)ccc23)cc1` [Compound 67, (1-benzylpiperidin-4-yl)methyl (S)-2-hydroxy-2-(3-(2-(3-(4-((((R)-2-hydroxy-2-(8-hydroxy-2-oxo-1,2-dihydroquinolin-5-yl)ethyl)amino)methyl)benzamido)azetidin-1-yl)-2-oxoethoxy)phenyl)-2-phenylacetate], the IC50 on Human M3 receptor and at Human β2 adrenoceptor was under 0.3 nM throughout.

Take `O=C(c1ccc(CCNC[C@H](O)c2ccc(O)c3[nH]c(=O)ccc23)cc1)N1CCCC2(C1)CN(C(=O)c1ccc(COc3cccc([C@](O)(C(=O)OCC4CCN(Cc5ccccc5)CC4)c4ccccc4)c3)cc1)C2` [Compound 120, (1-benzylpiperidin-4-yl)methyl (S)-2-hydroxy-2-(3-((4-(6-(4-(2-(((R)-2-hydroxy-2-(8-hydroxy-2-oxo-1,2-dihydroquinolin-5-yl)ethyl)amino)ethyl)benzoyl)-2,6-diazaspiro[3.5]nonane-2-carbonyl)benzyl)oxy)phenyl)-2-phenylacetate]: the IC50 on Human M3 receptor and on Human β2 adrenoceptor was under 0.3 nM throughout.

`O=C(NCCc1cccc(C(O)(C(=O)OCC2CCN(Cc3ccccc3)CC2)c2ccccc2)c1)c1ccc(CCNC[C@H](O)c2ccc(O)c3[nH]c(=O)ccc23)cc1` (stereo partly drawn) [Compound 40, (1-benzylpiperidin-4-yl)methyl 2-hydroxy-2-(3-(2-(4-(2-(((R)-2-hydroxy-2-(8-hydroxy-2-oxo-1,2-dihydroquinolin-5-yl)ethyl)amino)ethyl)benzamido)ethyl)phenyl)-2-phenylacetate]: the IC50 on Human M3 receptor and at Human β2 adrenoceptor was 0.3 to 3 nM in each case.

As to `O=C(OCC1CCN(Cc2ccccc2)CC1)C(O)(c1cccc(OCCCCCNC[C@H](O)c2ccc(O)c3[nH]c(=O)ccc23)c1)c1cccs1` (stereo partly drawn) [Compound 9, (1-benzylpiperidin-4-yl)methyl 2-hydroxy-2-(3-((5-(((R)-2-hydroxy-2-(8-hydroxy-2-oxo-1,2-dihydroquinolin-5-yl)ethyl)amino)pentyl)oxy)phenyl)-2-(thiophen-2-yl)acetate], the IC50 on Human M3 receptor was 0.3 to 3 nM; at Human β2 adrenoceptor it was under 0.3 nM.

As for `O=C(NCCCNC(=O)c1ccc(CNC[C@H](O)c2ccc(O)c3[nH]c(=O)ccc23)cc1)Nc1cccc(C(O)(C(=O)OCC2CCN(Cc3ccccc3)CC2)c2ccccc2)c1` (stereo partly drawn) [Compound 56, (1-benzylpiperidin-4-yl)methyl 2-hydroxy-2-(3-(3-(3-(4-((((R)-2-hydroxy-2-(8-hydroxy-2-oxo-1,2-dihydroquinolin-5-yl)ethyl)amino)methyl)benzamido)-propyl)ureido)phenyl)-2-phenylacetate diformate], the IC50 on Human M3 receptor and on Human β2 adrenoceptor was over 3 nM each time.

`O=C(COc1cccc([C@](O)(C(=O)OCC2CCN(Cc3ccccc3)CC2)c2ccccc2)c1)N[C@H]1C[C@H](NC(=O)c2ccc(CNC[C@H](O)c3ccc(O)c4[nH]c(=O)ccc34)cc2)C1` [Compound 63, (1-benzylpiperidin-4-yl)methyl (S)-2-hydroxy-2-(3-(2-(((1R,3S)-3-(4-((((R)-2-hydroxy-2-(8-hydroxy-2-oxo-1,2-dihydroquinolin-5-yl)ethyl)amino)methyl)benzamido)cyclobutyl)amino)-2-oxoethoxy)phenyl)-2-phenylacetate]: the IC50 at Human M3 receptor and at Human β2 adrenoceptor was under 0.3 nM in each case.

For `O=C(N[C@H]1CCCN(C(=O)COc2cccc([C@](O)(C(=O)OCC3CCN(Cc4ccccc4)CC3)c3ccccc3)c2)C1)c1ccc(CCNC[C@H](O)c2ccc(O)c3[nH]c(=O)ccc23)cc1` [Compound 108, (1-benzylpiperidin-4-yl)methyl (S)-2-hydroxy-2-(3-(2-((S)-3-(4-(2-(((R)-2-hydroxy-2-(8-hydroxy-2-oxo-1,2-dihydroquinolin-5-yl)ethyl)amino)ethyl)benzamido)piperidin-1-yl)-2-oxoethoxy)phenyl)-2-phenylacetate], the IC50 at Human M3 receptor and on Human β2 adrenoceptor was 0.3 to 3 nM throughout.

As to `O=C(OCC1CCN(Cc2ccccc2)CC1)C(O)(c1cccc(F)c1)c1cccc(OCCCCCNC[C@H](O)c2ccc(O)c3[nH]c(=O)ccc23)c1` (stereo partly drawn) [Compound 4, (1-benzylpiperidin-4-yl)methyl 2-(3-fluorophenyl)-2-hydroxy-2-(3-((5-(((R)-2-hydroxy-2-(8-hydroxy-2-oxo-1,2-dihydroquinolin-5-yl)ethyl)amino)pentyl)oxy)phenyl)acetate], the IC50 on Human M3 receptor was 0.3 to 3 nM; on Human β2 adrenoceptor, under 0.3 nM.

Take `O=C(NCc1ccc(COc2cccc([C@](O)(C(=O)OCC3CCN(Cc4ccccc4)CC3)c3ccccc3)c2)cc1)c1ccc(CCNC[C@H](O)c2ccc(O)c3[nH]c(=O)ccc23)cc1` [Compound 42C, (1-benzylpiperidin-4-yl)methyl (S)-2-hydroxy-2-(3-((4-((4-(2-(((R)-2-hydroxy-2-(8-hydroxy-2-oxo-1,2-dihydroquinolin-5-yl)ethyl)amino)ethyl)benzamido)methyl)benzyl)oxy)phenyl)-2-phenylacetate]: the IC50 at Human M3 receptor is 0.3 to 3 nM; at Human β2 adrenoceptor it was under 0.3 nM.
